From publication PMC6267619, “Isolation of Betulinic Acid, its Methyl Ester and Guaiane Sesquiterpenoids with Protein Tyrosine Phosphatase 1B Inhibitory Activity from the Roots of Saussurea lappa C.B.Clarke” (Molecules, 2008)
Values after ≈ are worked out from the molar mass of the structure shown. Values joined by “and” are separate entries in the source; they are usually repeats but may differ in a detail not shown here. Identical values can stand only once.

Target: T1, PTP1B (human, recombinant) (Homo sapiens, UniProt P18031)
T1 construct: purchased BIOMOL International LP (Plymouth Meeting, PA)
T1 sequence (P18031 1-435): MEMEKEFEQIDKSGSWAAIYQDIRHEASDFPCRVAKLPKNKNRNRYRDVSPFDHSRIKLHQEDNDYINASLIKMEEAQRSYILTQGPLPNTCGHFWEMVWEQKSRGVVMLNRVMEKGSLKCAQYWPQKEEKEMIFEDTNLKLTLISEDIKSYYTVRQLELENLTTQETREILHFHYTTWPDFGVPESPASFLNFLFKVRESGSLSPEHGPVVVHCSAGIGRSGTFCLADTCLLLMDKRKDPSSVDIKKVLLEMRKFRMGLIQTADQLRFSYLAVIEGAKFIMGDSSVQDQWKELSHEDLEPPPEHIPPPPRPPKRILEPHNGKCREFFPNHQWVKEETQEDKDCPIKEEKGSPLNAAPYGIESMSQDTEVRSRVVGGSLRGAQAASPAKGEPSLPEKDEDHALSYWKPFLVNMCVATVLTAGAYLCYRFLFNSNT
Test: PTP1B inhibition assay with pNPP as substrate
Type: biochemical
Details: for inhibition at 30 µg/mL / Inhibition % of PTP1B activity: at 30 μg/mL; for IC50: read-out: IC50 (PTP1B inhibitory activity) (converted)
Procedure: PTP1B (human, recombinant) was purchased from BIOMOL® International LP (Plymouth Meeting, PA). The enzyme activity was measured using p-nitrophenyl phosphate (pNPP) as a substrate. To each of 96 wells in a microtiter plate (final volume: 100 μL) was added 2 mM pNPP and PTP1B (0.05-0.1 μg) in a buffer containing 50 mM citrate (pH 6.0), 0.1 M NaCl, 1 mM EDTA, and 1 mM dithiothreitol (DTT) with or without test compounds. Following incubation at 37°C for 30 min, the reaction was terminated with 10 M NaOH. The amount of produced p-nitrophenol was estimated by measuring the absorbance at 405 nm. The non-enzymatic hydrolysis of 2 mM pNPP was corrected by measuring the increase in absorbance at 405 nm obtained in the absence of PTP1B enzyme.

[1] = na = not active (less than 50% inhibition at the level of 30 μg/mL)

| SMILES | inhibition at 30 µg/mL [%] | other results |
| --- | --- | --- |
| C=C1CC[C@@H](O)[C@]2(C)CC[C@H]3C(=C)C(=O)O[C@@H]3[C@@H]12 [Compound 7, reynosin] | < 50 | – |
| C=C(C)[C@@H]1CC[C@]2(C(=O)OC)CC[C@]3(C)[C@H](CC[C@@H]4[C@@]5(C)CC[C@H](O)C(C)(C)[C@@H]5CC[C@]43C)[C@@H]12 [Compound 2, betulinic acid methyl ester] | 89.4 | IC50 [1]: 1.98 µM and 1.91 µM |
| C/C1=C\[C@H]2OC(=O)[C@@H](C)[C@@H]2CC/C(C)=C/CC1 [Compound 6, 11β,13-dihydrocostunolide] | < 50 | – |
| CC[C@H](CC[C@@H](C)[C@H]1CC[C@H]2[C@@H]3CC=C4C[C@@H](O)CC[C@]4(C)[C@H]3CC[C@]12C)C(C)C [Compound 11, β-sitosterol] | < 50 | – |
| C=CCCCCC/C=C\C/C=C\C/C=C\CC [Compound 12, aplotaxene] | – | Inhibition % of PTP1B activity: < 50.0% |
| C=C1CC[C@H]2C(=C)CC[C@@H]3[C@H](OC(=O)[C@H]3C)[C@@H]12 [Compound 3, mokko lactone] | 93.1 | IC50 [1]: 6.07 µM and 6.03 µM |
| CCCCCCCCCCCCCCCCCC(=O)O[C@H]1CC[C@]2(C)[C@H]3CC=C4[C@@H]5[C@@H](C)[C@H](C)CC[C@]5(C)CC[C@@]4(C)[C@]3(C)CC[C@H]2C1(C)C [Compound 13, α-amyrin stearate] | – | Inhibition % of PTP1B activity: < 50.0% |
| CCCCCCCCCCCCCCCC(=O)C1=C(O)C(CO)OC1=O (stereo not shown) [RK-682, reference compound] | – | Inhibition % of PTP1B activity: 98.5%; IC50 (PTP1B inhibitory activity) [1]: 1.2 ± 0.09 µg/mL (≈ 3.26 µM) |
| C=C1C(=O)O[C@@H]2/C=C(\C)CC/C=C(\C)CC[C@@H]12 [Compound 5, costunolide] | < 50 | – |
| C=C1C(=O)O[C@@H]2[C@H]3C(C)=CC[C@@H](O)[C@]3(C)CC[C@@H]12 [Compound 9, santamarine] | < 50 | – |
| C=C1C(=O)O[C@@H]2[C@@H]3[C@@](C)(CC[C@@H]12)[C@H](O)CC[C@@]3(C)O [Compound 8, 1β-hydroxy arbusculin A] | < 50 | – |
| C[C@H]1[C@H](C)CC[C@]2(C(=O)O)CC[C@]3(C)C(=CC[C@@H]4[C@@]5(C)CC[C@H](O)C(C)(C)[C@@H]5CC[C@]43C)[C@H]12 [Ursolic acid, reference compound] | 99 | – |
| C=C(C)[C@@H]1CC[C@]2(C(=O)O)CC[C@]3(C)[C@H](CC[C@@H]4[C@@]5(C)CC[C@H](O)C(C)(C)[C@@H]5CC[C@]43C)[C@@H]12 [Compound 1, betulinic acid] | 95.1 | IC50 [1]: 1.53 µM |
| C=C1CC[C@H]2C(=C)CC[C@H]3C(=C)C(=O)O[C@@H]3[C@@H]12 [Compound 4, dehydrocostuslactone] | 86.2 | IC50 [1]: 28.3 µM and 28.2 µM |
